Source: patent publication US20040248825A1, “Use of neuraminidase inhibitors to prevent flu associated bacterial infections” (St. Jude Children's Research Hospital, priority 2001, published 2004)
“Also recorded” adds a separate entry of the source. Read-outs that look alike come from different tables or passages of the source.

Key:
[1] = tested on: influenza A/PR/8/34 (H1N1) followed by S. pneumoniae D39; test: Chemoprophylaxis study: mice infected with influenza virus on day 0, oseltamivir begun 4 hours before infection, pneumococcal challenge on day 7; format: in vivo, Balb/cByJ mice; conditions: for Weight Loss (% of Baseline) / Mean viral lung titer: prophylaxis study
[2] = tested on: influenza A/PR/8/34 (H1N1) followed by S. pneumoniae D39; test: Treatment study: sequential dual infection, oseltamivir begun 48 hours after influenza infection, pneumococcal challenge on day 7; format: in vivo, Balb/cByJ mice; conditions: for Survival (Mantel-Cox Chi-Squared test on Kaplan-Meier survival data): oseltamivir 10 mg/kg/day BID begun 48 h after influenza, until D39 challenge on day 7, p<0.01 vs water control; for Mean viral lung titer / Weight Loss (% of Baseline) / Mean bacterial lung titer: treatment study; for Mean bacterial lung titer: day 8, 24 hours after pneumococcal challenge
[3] = cited from earlier work

For `CCOC(=O)C1=C[C@@H](OC(CC)CC)[C@H](NC(C)=O)[C@@H](N)C1` [oseltamivir, oseltamivir phosphate], the “Survival (Mantel-Cox Chi-Squared test on Kaplan-Meier survival data)” value ([1]; oseltamivir 10 mg/kg/day BID for 5 days from 4 h before influenza, 100 TCID50 PR8 day 0, 100 CFU D39 day 7, p<0.005 vs water control) was “significantly prolonged; also recorded: prolongs survival”, the Median survival ([1]; prophylaxis group, after pneumococcal challenge, control <1 day) was 7 days and the “Survival (number survived/total)” value ([1]; prophylaxis group, followed 21 days, control 0/10) was 5/10. The “Weight lost by surviving mice, % of their day 7 weight” value ([1]; prophylaxis group, in 48 hours after pneumococcal challenge, control 9.5%) was 7.5%, the “Weight Loss (% of Baseline)” value ([1]; day 3) was 4.0 % of Baseline and the “Mean viral lung titer” value ([1]; day 3, log10/ml TCID50 in MDCK cells) was 4.3 log10. For the same compound, the “Mean viral lung titer” value ([1]; day 3, log10/ml TCID50 in MDCK cells, listed as Oseltamivir) was 4.32 log10, the “Weight Loss (% of Baseline)” value ([1]; day 7) was 9 % of Baseline and the “Mean viral lung titer” value ([1]; day 7, before pneumococcal challenge, log10/ml TCID50) was 3.84 log10. For the same compound, the “Weight Loss (% of Baseline)” value ([1]; day 7, listed as Oseltamivir) was 8.7 % of Baseline, the Lung histopathology ([2]; lung tissue on day 8, untreated controls: diffuse, severe infection disseminated throughout both lungs) was “lobar bronchopneumonia infection that is confined to defined regions of the lungs” and the “Survival (Mantel-Cox Chi-Squared test on Kaplan-Meier survival data)” value [2] was “significantly prolonged”. The “Survival (Mantel-Cox Chi-Squared test on Kaplan-Meier survival data)” value ([2]; listed as Oseltamivir) was “prolongs survival”, the Median survival ([2]; oseltamivir group of the treatment study, control 1 day) was 5 days and the “Weight lost by surviving mice, % of their day 7 weight” value ([2]; treatment group, in 48 hours after pneumococcal challenge, control 5%) was 4%. For the same compound, the “Survival (number survived/total)” value ([2]; treatment group, control 0/9) was 3/10, the “Mean viral lung titer” value ([2]; day 3) was 6.8 log10 and the “Weight Loss (% of Baseline)” value ([2]; day 3) was 7.6 % of Baseline. For the same compound, the “Mean viral lung titer” value ([2]; day 3, listed as Oseltamivir) was 6.84 log10, the “Mean viral lung titer” value ([2]; day 7) was 5.4 log10 and the “Weight Loss (% of Baseline)” value ([2]; day 7) was 23 % of Baseline. For the same compound, the “Mean viral lung titer” value ([2]; day 7, listed as Oseltamivir) was 5.42 log10, the “Mean bacterial lung titer” value [2] was 7.1 log10 CFU/ml and the “Mean bacterial lung titer” value ([2]; listed as Oseltamivir) was 7.08 log10 CFU/ml. The Half-life ([3]; oral) was 6 to 10 h and the Systemic bioavailability ([3]; oral) was 80%.

For `CC(=O)N[C@H]1[C@H]([C@H](O)[C@H](O)CO)OC(C(=O)O)=C[C@@H]1N=C(N)N` [Zanamivir, zanamivir], the “Fraction of inhaled drug that reaches the lungs” value ([3]; dry powder for inhalation) is given as “approx. 20%”, the Gastrointestinal absorption ([3]; in vivo) is given as “poorly absorbed” and the Half-life ([3]; in vivo) is given as 2.5 to 5 h.
